These results are taken from article PMC5063058, “Cephalosporins inhibit human metallo β-lactamase fold DNA repair nucleases SNM1A and SNM1B/apollo” (Chemical Communications (Cambridge, England), 2016).

In one assay the target is T1, SNM1B (Homo sapiens, UniProt Q9H816).
T1 construct: gene DCLRE1B; 5'-3' exonuclease with MBL and beta-CASP domains
T1 sequence (Q9H816 1-335): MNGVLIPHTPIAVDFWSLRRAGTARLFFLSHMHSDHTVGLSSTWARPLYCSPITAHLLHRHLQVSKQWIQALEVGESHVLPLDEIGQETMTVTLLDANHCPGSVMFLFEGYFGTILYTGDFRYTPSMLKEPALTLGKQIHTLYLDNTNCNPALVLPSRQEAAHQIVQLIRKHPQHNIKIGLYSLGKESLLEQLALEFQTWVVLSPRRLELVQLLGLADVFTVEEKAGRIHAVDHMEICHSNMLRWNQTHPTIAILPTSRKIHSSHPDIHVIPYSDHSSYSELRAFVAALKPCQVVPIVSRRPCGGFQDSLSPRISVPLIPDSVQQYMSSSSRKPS
Put plainly: real-time fluorescence nuclease assay (fluorescein/BHQ1 20-nt ssDNA). The class given is biochemical. The source says:
(§1) real-time fluorescence nuclease assay (fluorescein/BHQ1 20-nt ssDNA) on SNM1B

In assay [1] the target is T2, SNM1A (Homo sapiens, UniProt Q6PJP8).
T2 construct: gene DCLRE1A; 5'-3' exonuclease with MBL and beta-CASP domains
T2 sequence (Q6PJP8 700-1040): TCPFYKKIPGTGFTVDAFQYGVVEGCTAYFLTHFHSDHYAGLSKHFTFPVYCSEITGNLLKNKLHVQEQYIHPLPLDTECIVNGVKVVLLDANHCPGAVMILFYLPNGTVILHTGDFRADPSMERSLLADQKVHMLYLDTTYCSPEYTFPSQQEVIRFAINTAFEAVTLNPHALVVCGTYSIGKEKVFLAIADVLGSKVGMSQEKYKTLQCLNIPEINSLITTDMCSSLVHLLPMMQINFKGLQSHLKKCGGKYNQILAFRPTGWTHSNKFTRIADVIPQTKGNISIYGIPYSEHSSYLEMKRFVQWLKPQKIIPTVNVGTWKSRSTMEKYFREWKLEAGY
The assay is described as above. The assay is classed as biochemical. The source says:
real-time fluorescence nuclease assay (fluorescein/BHQ1 20-nt ssDNA) on SNM1A

Assay in assay [2]: as above
As to conditions: read-out: IC50 SNM1A ^a /μM. The class given is biochemical, Homo sapiens.
Text: as §1

The target of assay [3] is T2, SNM1A. The experiment in a line: quantitative 1H NMR binding assay.

As to `CC(=O)OCC1=C(C(=O)O)N2C(=O)[C@@H](N)[C@H]2SC1` [compound 1, 7-ACA], the IC50 stood at 32 ± 10 µM on SNM1B and 7 ± 1 µM against SNM1A [1].

Regarding `CC(=O)OCC1=C(C(=O)O)N2C(=O)[C@@H](NC(=O)CCC[C@@H](N)C(=O)O)[C@H]2SC1` [compound 2, Cephalosporin C], the IC50 was greater than 500 µM on SNM1B and 61 ± 27 µM on SNM1A [1].

Take `CC(C)(O/N=C(\C(=O)N[C@@H]1C(=O)N2C(C(=O)[O-])=C(C[n+]3ccccc3)CS[C@H]12)c1csc(N)n1)C(=O)O` [Ceftazidime]: the IC50 (in assay [2]; against SNM1A [1]) was greater than 500 µM each time.

As for `CO/N=C(\C(=O)N[C@@H]1C(=O)N2C(C(=O)O)=C(CSc3nc(=O)c(=O)[nH]n3C)CS[C@H]12)c1csc(N)n1` [compound 4, Ceftriaxone], the IC50 against SNM1B was determined as 40 ± 14 µM; against SNM1A [1], 4 ± 2 µM. The Kd (usually the constant that tells how readily two partners part at equilibrium) at SNM1A [3] was 19 ± 4 µM.

For the molecule `CO/N=C(\C(=O)N[C@@H]1C(=O)N2C(C(=O)O)=C(COC(C)=O)CS[C@H]12)c1csc(N)n1` [compound 3, Cefotaxime], the IC50 at SNM1B was 129 ± 20 µM; at SNM1A [1] it was 5 ± 2 µM.
